Data set [1] relates to human Erythropoietin (EPO). As to the kind of experiment: Serum EPO after intravenous injection of EPO mRNA loaded LNPs (ELISA). Format: in vivo, mice. Conditions: for serum EPO concentration: 0.75 mg/kg intravenous, C57BL/6 mice, six hours (FIG. 2); for Average EPO: serum EPO, mean±SD (n=3), 6 hr after 0.75 mg/kg intravenous injection into mice, lipid formulated as EPO mRNA LNP. The method, then:
Compounds OF-00 through OF-03 were then formulated with human erythropoietin (EPO) mRNA, cholesterol, 1,2-dioleoyl-sn-glycero-3-phosphoethanolamine, and C14-PEG-2000 in accordance with previously optimized formulation parameters for mRNA delivery. See, e.g., A. Amirouche et al., Human molecular genetics 2013, 22, 3093-3111. […] Additionally, cKK-E12 is capable of silencing Factor VII expression in mice at siRNA doses as low as 0.002 mg/kg, and as such it represents a benchmark ionizable lipid in the field of nucleic acid delivery. The nanoparticle diameters, polydispersity indices, and encapsulation efficiencies for each of these five formulations is provided in Table 1. Serum EPO concentrations are reported as mean±SD (n=3) 6 hr after a 0.75 mg/kg dose intravenous injection into mice. Encapsulation efficiencies, LNP diameter, and PDI were collected as described above for each representative LNP formulation.
Each resultant mRNA loaded LNP was then injected intravenously at a 0.75 mg/kg dose in C57BL/6 mice alongside phosphate buffered saline (PBS) as a negative control. At six hours, the serum EPO levels were quantified (FIG. 2). The PBS control imparted no significant EPO production in vivo, whereas positive control cKK-E12 LNPs promoted a serum EPO concentration of 7050 ng/mL. […] Additionally, OF-02 outperformed two other benchmark ionizable lipids from the siRNA delivery field, namely 503-013 (See, e.g, J. McClellan, M. C. King, Cell 2010, 141, 210-217; Whitehead et al., Nature Communications (2014) 5:4277) and C12-200 (K. T. Love et al., Proceedings of the National Academy of Sciences of the United States of America 2010, 107, 1864-1869). These two compounds represent the leads in their respective ionizable lipid classes of acrylate esters and amino alcohols, and promoted respective EPO concentrations of 2836 ng/mL and 7065 ng/mL at an identical dose.
General Lipid Nanoparticle (LNP) Synthesis. The organic phase was prepared by solubilizing with ethanol a mixture of ionizable lipid, 1,2-dioleoyl-sn-glycero-3-phosphoethanolamine (DOPE, Avanti), cholesterol (Sigma), and 1,2-dimyristoyl-sn-glycero-3-phosphoethanolamine-N-[methoxy(polyethyleneglycol)-2000] (ammonium salt) (C14-PEG 2000, Avanti) at a molar ratio of 35:16:46.5:2.5 and ionizable lipid:mRNA weight ratio of 10:1 in accordance with previously optimized formulation parameters for mRNA delivery. The aqueous phase was prepared in 10 mM citrate buffer (pH 3) with either EPO mRNA (human Erythropoietin mRNA, courtesy of Shire Pharmaceuticals, Cambridge, Mass.) or Luc mRNA (Firefly luciferase mRNA, Shire). The ethanol and aqueous phases were mixed at a 3:1 ratio in a microfluidic chip device (ref Delai's paper) using syringe pumps as previously described at a final mRNA concentration of 0.1 mg/mL. See, e.g., Chen et al., J. Am. Chem. Soc. (2012) 134:6948. Resultant LNPs were dialyzed against PBS in a 20,000 MWCO cassette at 4° C. for 2 hours.
(§1) Animal Experiments. […] Luminescence was quantified using LivingImage software (Perkin Elmer).

Data set [2] in a line: mRNA encapsulation efficiency, modified Quant-iT RiboGreen RNA assay. Format: physicochemical. Conditions: EPO mRNA LNP formulation of the ionizable lipid. The method, then:
(§2) General Lipid Nanoparticle (LNP) Synthesis. […] The ethanol and aqueous phases were mixed at a 3:1 ratio in a microfluidic chip device (ref […] paper) using syringe pumps as previously described at a final mRNA concentration of 0.1 mg/mL. See, e.g., Chen et al., J. Am. Chem. Soc. (2012) 134:6948. Resultant LNPs were dialyzed against PBS in a 20,000 MWCO cassette at 4° C. for 2 hours. LNP Characterization. To calculate the mRNA encapsulation efficiency, a modified Quant-iT RiboGreen RNA assay (Invitrogen) was used as previously described. See, […] al., J. Controlled Release (2005) 107:276-287. The diameter and polydispersity (PDI) of the LNPs were measured using dynamic light scattering (ZetaPALS, Brookhaven Instruments). LNP diameters are reported as the largest intensity mean peak average, which constituted >95% of the nanoparticles present in the sample.

A short description of data set [3]: LNP diameter and polydispersity by dynamic light scattering. The class given is physicochemical. The settings on record: for LNP Diameter: largest intensity mean peak average. Here is the method:
as §2

The subject of a further data set is luciferase. Also noted: species or system mice. Conditions: mouse, in vivo. The method, then:
We were interested to determine if the efficacy differences observed between ckk-E12 and OF-02 LNPs were due to variations in biodistribution. mRNA coding for luciferase was independently formulated with both ckk-E12 and OF-02 in the same fashion as for EPO delivery, and mouse organs were harvested 24 hours post injection. […] Since more than 4000 human diseases are caused by liver genetic disorders such as hemophilias A and B, OF-02 LNPs represent a promising delivery vehicle for therapeutic mRNA delivery to the liver. See, e.g., J. McClellan et al., Cell 2010, 142, 353-355.
as §1

A further data set deals with Factor VII. Conditions: mice, siRNA delivery; cited from earlier work.
The test system of another data set is mice. As to the kind of experiment: Mortality and weight change of mice treated with mRNA LNPs. Conditions: all doses studied.

Each structure is given as a SMILES string.

Protocol for mice: FIG. 7 depicts the percent weight gain for cKK-E12 and OF-02 mRNA LNPs reported as mean SD (n=3) 24 hours after respective intravenous dose into mice.
Animal Experiments. […] LNPs were intraveneously injected in female C57BL/6 mice (Charles River Labs, 18-22 grams) via the tail vein. After six or 24 hours, blood was collected via the tail vein and serum was isolated by centrifugation in serum separation tubes. Serum EPO levels were quantified with an ELISA assay (Human Erythropoietin Quantikine IVD ELISA Kit, R&D Systems, Minneapolis, Md.). 24 hours after injection of Luc-mRNA LNPs, mice were injected intraperitoneally with 130 μL of D-luciferin (30 mg/mL in PBS). After fifteen minutes, mice were sacrificed and the organs were isolated (pancreas, spleen, liver, kidneys, lungs, heart, uterus and ovaries) and imaged with an IVIS imaging system (Perkin Elmer, Waltham, Mass.). Luminescence was quantified using LivingImage software (Perkin Elmer).

As to `CCCCCCCCCCCCCOC(=O)CCN(CCC(=O)OCCCCCCCCCCCCC)CCN(C)CCCN(C)CCN(CCC(=O)OCCCCCCCCCCCCC)CCC(=O)OCCCCCCCCCCCCC` [Compound 503-013], the “serum EPO concentration” value in data set [1] was found to be 2836 ng/mL.
As to `CC/C=C\C/C=C\C/C=C\CC(O)CN(CCCCC1NC(=O)C(CCCCN(CC(O)C/C=C\C/C=C\C/C=C\CC)CC(O)C/C=C\C/C=C\C/C=C\CC)NC1=O)CC(O)C/C=C\C/C=C\C/C=C\CC` (stereo not drawn) [OF-03], the “Average EPO” value in data set [1] came to 140 ± 3 ng/mL. In addition, the “Encapsulation Efficiency” value in data set [2] came out at 76%. Further, in data set [3], the PDI was 0.239 and the “LNP Diameter” value stood at 75 nm.
Regarding `CCCCCCCCCCC(O)CN(CCCCC1NC(=O)C(CCCCN(CC(O)CCCCCCCCCC)CC(O)CCCCCCCCCC)NC1=O)CC(O)CCCCCCCCCC` (stereo not drawn) [cKK-E12], in data set [1], the “serum EPO concentration” value was determined as 7050 ng/mL and the “Average EPO” value came out at 7100 ± 700 ng/mL. The “dose response behaviour of EPO production” value in data set [1] (0.75 to 2.25 mg/kg EPO mRNA (FIG. 3B)) is on record as “linear fashion with respect to dose”. The “Encapsulation Efficiency” value in data set [2] was 54%. For the same compound, in data set [3], the PDI turned out to be 0.217 and the “LNP Diameter” value is recorded as 83 nm. Further, the “organ of luciferase mRNA translation (total luminescence per organ)” value in the data set with luciferase was “predominantly translated in the liver”. Further, the “siRNA dose at which Factor VII expression is silenced” value in the data set on Factor VII is 2 µg/kg. Further, in the data set on mice, the animal mortality entry is listed as “no animal mortality was observed”.
Turning to `CCCCCCCCCCC(O)CN(CCN1CCN(CCN(CC(O)CCCCCCCCCC)CC(O)CCCCCCCCCC)CC1)CCN(CC(O)CCCCCCCCCC)CC(O)CCCCCCCCCC` (stereo not drawn) [Compound C12-200], the “serum EPO concentration” value in data set [1] is reported as 7065 ng/mL.

Values taken from patent US11679165B2, “Alkenyl substituted 2,5-piperazinediones, compositions, and uses thereof” (Massachusetts Institute of Technology, priority 2015, dated 2023).
